In patent publication US20140142352A1, “BUTANOL PURIFICATION” (BUTAMAX ADVANCED BIOFUELS LLC, priority 2012, published 2014):
Like-named read-outs stand apart in the source and are kept apart here. Values belong to the compound of their own block, whether it stands above or below them.

Legend:
[1] = Liquid-liquid extraction of carboxylic acids from fermentation medium into oleyl alcohol at different pH; type: physicochemical
[2] = 30 min, pH 5.3
[3] = Reactive liquid-liquid extraction from aqueous compound solution into OA or OA with TBP, TOA or A336: aqueous concentrations; type: physicochemical; conditions: pH=5.3, 30° C.
isobutanologen PNY 2242 = assay: SSF corn mash fermentation of isobutanologen with extractant layer; type: cell-based
anaerobic inoculum = assay: Acetate Toxicity Assays (ATA); type: cell-based
Procedure: For the BMP tests, iBA provided the sole source of substrate over a range of conditions. Feed controls were prepared at organic loadings that spanned the lower and upper range of loadings used in the ATA and BMP tests, and gas production was monitored. Samples were prepared in triplicate with the seed concentration for all test bottles being 2000 mg/L. The feed control and ATA biodegradable synthetic feed composition contained 4000 mg/L acetate and 2000 mg/L propionate. The inorganic nutrient media used was similar to media presented in Table 5.1 of […], Anaerobic Biotechnology for Industrial […], Vanderbilt University, […], Nashville, p 115 (1996). The bottles were maintained at a temperature of 35° C.

[4] = Liquid-liquid extraction of isobutyric acid from fermentation medium into oleic acid at different pH; type: physicochemical
[5] = Liquid-liquid extraction of isobutyric acid from fermentation medium into SOFA at different pH; type: physicochemical
[6] = Liquid-liquid extraction of isobutyric acid from fermentation medium into COFA at different pH; type: physicochemical
[7] = pH 3.14, ISPR ratio (Aq):(Oleyl Alcohol) 1:1
[8] = pH 3.14, ISPR ratio (Aq):(Oleyl Alcohol) 1:3
[9] = pH 4.94, ISPR ratio (Aq):(Oleyl Alcohol) 1:1
[10] = pH 4.94, ISPR ratio (Aq):(Oleyl Alcohol) 1:3
[11] = pH 7.24, ISPR ratio (Aq):(Oleyl Alcohol) 1:1
[12] = pH 7.24, ISPR ratio (Aq):(Oleyl Alcohol) 1:3
[13] = 2 mL extractant on 2 mL aqueous solution
[14] = 6 mL extractant on 2 mL aqueous solution
[15] = 10 mL extractant on 2 mL aqueous solution

SMILES: CCCCCCCC/C=C\CCCCCCCCO [OA, oleyl alcohol]
Acetic Acid (mM), aqueous concentration after addition of extractant [3, 13]: 13.13 mM
Formic Acid (mM), aqueous concentration after addition of extractant [3, 13]: 11.96 mM
Isobutanol (mM), aqueous concentration after addition of extractant [3, 13]: 3.01 mM
Isobutyric Acid (mM), aqueous concentration after addition of extractant [3, 13]: 8.01 mM
MES (AU), aqueous concentration after addition of extractant [3, 13]: 6954908 AU
Phosphate (AU), aqueous concentration after addition of extractant [3, 13]: 656297 AU
Acetic Acid (mM), aqueous concentration after addition of extractant [3, 14]: 12.98 mM
Formic Acid (mM), aqueous concentration after addition of extractant [3, 14]: 12.68 mM
Isobutanol (mM), aqueous concentration after addition of extractant [3, 14]: 1.19 mM
Isobutyric Acid (mM), aqueous concentration after addition of extractant [3, 14]: 4.95 mM
MES (AU), aqueous concentration after addition of extractant [3, 14]: 7135183 AU
Phosphate (AU), aqueous concentration after addition of extractant [3, 14]: 673645 AU
Acetic Acid (mM), aqueous concentration after addition of extractant [3, 15]: 12.73 mM
Formic Acid (mM), aqueous concentration after addition of extractant [3, 15]: 13.05 mM
Isobutanol (mM), aqueous concentration after addition of extractant [3, 15]: 0.77 mM
Isobutyric Acid (mM), aqueous concentration after addition of extractant [3, 15]: 3.57 mM
MES (AU), aqueous concentration after addition of extractant [3, 15]: 7168671 AU
Phosphate (AU), aqueous concentration after addition of extractant [3, 15]: 676874 AU
performance of the butanologen (glucose consumption, isobutanol production, FIG. 4) (isobutanologen PNY 2242; 48 hours, extractant as LLX layer): performed best
C (g/c) [g/L], free glucose during the SSF (isobutanologen PNY 2242; EPT 3.67 h): 37.2 g/L
C (g/c) [g/L], free glucose during the SSF (isobutanologen PNY 2242; EPT 21.00 h): 34.60 g/L
C (g/c) [g/L], free glucose during the SSF (isobutanologen PNY 2242; EPT 28.00 h): 29.7 g/L
C (g/c) [g/L], free glucose during the SSF (isobutanologen PNY 2242; EPT 48.00 h): 1.20 g/L

SMILES: CC(C)C(=O)O [Isobutyric Acid, isobutyric acid]
Cumulative Gas Production (% Theoretical Max) (anaerobic inoculum; ATA-syn 550 ppm iBA, Day 2): 18 % Theoretical Max
Cumulative Gas Production (% Theoretical Max) (anaerobic inoculum; ATA-syn 550 ppm iBA, Day 4): 45 % Theoretical Max
Cumulative Gas Production (% Theoretical Max) (anaerobic inoculum; ATA-syn 550 ppm iBA, Day 6): 65 % Theoretical Max
Cumulative Gas Production (% Theoretical Max) (anaerobic inoculum; ATA-syn 550 ppm iBA, Day 10): 82 % Theoretical Max
Cumulative Gas Production (% Theoretical Max) (anaerobic inoculum; ATA-syn 550 ppm iBA, Day 12): 85 % Theoretical Max
Cumulative Gas Production (% Theoretical Max) (anaerobic inoculum; ATA-syn 550 ppm iBA, Day 15): 86 % Theoretical Max
Cumulative Gas Production (% Theoretical Max) (anaerobic inoculum; ATA-syn 825 ppm iBA, Day 2): 14 % Theoretical Max
Cumulative Gas Production (% Theoretical Max) (anaerobic inoculum; ATA-syn 825 ppm iBA, Day 4): 36 % Theoretical Max
Cumulative Gas Production (% Theoretical Max) (anaerobic inoculum; ATA-syn 825 ppm iBA, Day 6): 56 % Theoretical Max
Cumulative Gas Production (% Theoretical Max) (anaerobic inoculum; ATA-syn 825 ppm iBA, Day 10): 82 % Theoretical Max
Cumulative Gas Production (% Theoretical Max) (anaerobic inoculum; ATA-syn 825 ppm iBA, Day 12): 83 % Theoretical Max
Cumulative Gas Production (% Theoretical Max) (anaerobic inoculum; ATA-syn 825 ppm iBA, Day 15): 84 % Theoretical Max
Cumulative Gas Production (% Theoretical Max) (anaerobic inoculum; ATA-syn 1100 ppm iBA, Day 2): 14 % Theoretical Max
Cumulative Gas Production (% Theoretical Max) (anaerobic inoculum; ATA-syn 1100 ppm iBA, Day 4): 36 % Theoretical Max
Cumulative Gas Production (% Theoretical Max) (anaerobic inoculum; ATA-syn 1100 ppm iBA, Day 6): 51 % Theoretical Max
Cumulative Gas Production (% Theoretical Max) (anaerobic inoculum; ATA-syn 1100 ppm iBA, Day 10): 82 % Theoretical Max
Cumulative Gas Production (% Theoretical Max) (anaerobic inoculum; ATA-syn 1100 ppm iBA, Day 12): 85 % Theoretical Max
Cumulative Gas Production (% Theoretical Max) (anaerobic inoculum; ATA-syn 1100 ppm iBA, Day 15): 85 % Theoretical Max
inhibition of gas generation (anaerobic inoculum; iBA concentrations of up to 1100 parts per million (ppm)): did not inhibit gas generation
Conc. Isobutyric Acid (%) ([4]; pH 4.08, ISPR ratio (Aq):(Oleic Acid) 1:1): 29.60%
Conc. Isobutyric Acid (%) ([4]; pH 4.08, ISPR ratio (Aq):(Oleic Acid) 1:3): 13.00%
Conc. Isobutyric Acid (%) ([4]; pH 4.82, ISPR ratio (Aq):(Oleic Acid) 1:1): 49.16%
Conc. Isobutyric Acid (%) ([4]; pH 4.82, ISPR ratio (Aq):(Oleic Acid) 1:3): 23.36%
Conc. Isobutyric Acid (%) ([4]; pH 6.95, ISPR ratio (Aq):(Oleic Acid) 1:1): 67.35%
Conc. Isobutyric Acid (%) ([4]; pH 6.95, ISPR ratio (Aq):(Oleic Acid) 1:3): 28.60%
Conc. of acid in aqueous broth after extraction [1, 7]: 19770 µM
Conc. of acid in aqueous broth after extraction [1, 8]: 8100 µM
Conc. of acid in aqueous broth after extraction [1, 9]: 46140 µM
Conc. of acid in aqueous broth after extraction [1, 10]: 30830 µM
Conc. of acid in aqueous broth after extraction [1, 11]: 93360 µM
Conc. of acid in aqueous broth after extraction [1, 12]: 91950 µM
Partition coefficients (P) [HA] org/aq [2]: 1.91 mol/mol
KE (+A336, oleyl alcohol with 100 mM of Aliquat 336): 0.036
KE (+TBA, oleyl alcohol with 100 mM of tributyl phosphate): 0.000
KE (+TOA, oleyl alcohol with 100 mM of trioctyl amine): 0.010
Conc. Isobutyric Acid (%) ([5]; pH 3.93, ISPR ratio (Aq):(SOFA) 1:1): 31.37%
Conc. Isobutyric Acid (%) ([5]; pH 3.93, ISPR ratio (Aq):(SOFA) 1:3): 12.68%
Conc. Isobutyric Acid (%) ([5]; pH 4.92, ISPR ratio (Aq):(SOFA) 1:1): 53.76%
Conc. Isobutyric Acid (%) ([5]; pH 4.92, ISPR ratio (Aq):(SOFA) 1:3): 27.63%
Conc. Isobutyric Acid (%) ([5]; pH 6.64, ISPR ratio (Aq):(SOFA) 1:1): 74.48%
Conc. Isobutyric Acid (%) ([5]; pH 6.64, ISPR ratio (Aq):(SOFA) 1:3): 33.23%
Conc. Isobutyric Acid (%) ([6]; pH 4.08, ISPR ratio (Aq):(COFA) 1:1): 29.81%
Conc. Isobutyric Acid (%) ([6]; pH 4.08, ISPR ratio (Aq):(COFA) 1:3): 12.81%
Conc. Isobutyric Acid (%) ([6]; pH 4.82, ISPR ratio (Aq):(COFA) 1:1): 52.89%
Conc. Isobutyric Acid (%) ([6]; pH 4.82, ISPR ratio (Aq):(COFA) 1:3): 30.00%
Conc. Isobutyric Acid (%) ([6]; pH 6.95, ISPR ratio (Aq):(COFA) 1:1): 70.40%
Conc. Isobutyric Acid (%) ([6]; pH 6.95, ISPR ratio (Aq):(COFA) 1:3): 31.27%

SMILES: CC(=O)O [Acetic Acid, acetic acid]
Conc. of acid in aqueous broth after extraction [1, 7]: 140040 µM
Conc. of acid in aqueous broth after extraction [1, 8]: 106430 µM
Conc. of acid in aqueous broth after extraction [1, 9]: 162730 µM
Conc. of acid in aqueous broth after extraction [1, 10]: 159230 µM
Conc. of acid in aqueous broth after extraction [1, 11]: 169150 µM
Conc. of acid in aqueous broth after extraction [1, 12]: 173630 µM

The next lines start with the values.

Conc. of acid in aqueous broth after extraction [1, 7]: 54070 µM
Conc. of acid in aqueous broth after extraction [1, 8]: 40280 µM
Conc. of acid in aqueous broth after extraction [1, 9]: 72000 µM
Conc. of acid in aqueous broth after extraction [1, 10]: 71860 µM
Conc. of acid in aqueous broth after extraction [1, 11]: 72460 µM
Conc. of acid in aqueous broth after extraction [1, 12]: 73310 µM
SMILES: CC(C)(O)CC(=O)O [HMB]

Partition coefficients (P) [HA] org/aq [2]: 2.97 mol/mol
SMILES: CC(C)CO [Isobutanol, 2-methyl-1-propanol]

efficiency of extraction of isobutyric acid (100 mM extractant in oleyl alcohol): less efficient
SMILES: CCCCCCCCN(CCCCCCCC)CCCCCCCC [TOA, tru-n-octylamine]
